In paper PMC9861623, “New Ferulic Acid and Amino Acid Derivatives with Increased Cosmeceutical and Pharmaceutical Potential” (Pharmaceutics, 2022):
Where “and” joins values, the source holds several entries; their conditions need not be identical. Identical values can stand only once.

Legend:
[1] = Skin permeation in Franz diffusion cells; type: in vitro ADME, pig; conditions: 24 h, 10 mg as FA applied
Protocol: In the experiment, abdominal porcine skin coming from the local slaughterhouse was used. Pig skin was chosen because of its similar permeability to human skin [34, 35]. The fresh abdominal porcine skin was washed several times in PBS buffer pH 7.4. The skin of 0.5 mm in thickness was dermatomed and divided into 2 cm × 2 cm pieces. The skin samples were wrapped in aluminum foil and stored at −20 °C until use, not longer than 3 months. According to Badran et al., this storage time at this temperature is safe to keep skin barrier properties. Immediately before the experiment, the skin samples were slowly thawed at room temperature for 30 min and then were hydrated by PBS pH 7.4 [37, 38, 39, 40]. Such prepared skin was mounted on donor chamber. Only the undamaged skin pieces with an even thickness were chosen for experiments. The integrity of the skin was checked by impedance measurement using an LCRmeter4080 (Conrad Electronic, Hirschau, Germany), operated in parallel mode at an alternating frequency of 120 Hz (error at kΩ values < 0.5%). The tips of measuring probes were immersed in the donor and acceptor chamber containing PBS (pH 7.4), as described previously. Only skin samples of impedance > 3 kΩ were applied as such impedance is similar to the electrical resistance of human skin [42].
The concentration of FA and its derivatives in the acceptor fluid and in the fluid obtained by skin extraction after permeation experiment was assessed using liquid chromatography system (Knauer, Berlin, Germany) consisting of a model 2600 UV detector, Smartline model 1050 pump and Smartline model 3950 autosampler. HPLC was controlled by ClarityChrom 2009 software. The detector was operated at 280 nm. The separations were performed on 125 mm × 4 mm ID chromatographic column filled with Hyperisil ODS (C18), particle size 5 µm, in isocratic mode. The mobile phase consisted of acetonitrile, 1% acetic acid, and MeOH (47/47/6 v/v/v) and was pumped at flow rate of 1 mL min^−1. The column temperature was set at 25 °C, and the injection volume was 20 µL.
(§1) The permeation experiments were performed using Franz diffusion cells (Phoenix DB-6, ABL&E-JASCO, Wien, Austria). The diffusion was 1 cm^2. The volume of the acceptor chamber was 8 mL. This chamber was filled with PBS solution (pH 7.4). During experiment, a constant temperature of 37.0 ± 0.5 °C was maintained in each diffusion unit. The acceptor chamber content was stirred with a magnetic stirring bar at the same speed for all cells. The prepared pig skin was mounted on each donor chamber. As previously mentioned, only undamaged skin pieces with an even thickness were chosen for experiments. Thereafter, the hydrogel or emulsion vehicle/preparation in 1 g portion was put on the skin in donor cells. For comparison, 1 mL ethanolic solution containing either FA or its derivatives was applied to another donor chamber. The amount of the FA and its derivatives applied on the skin expressed as the mass of ferulic acid was 0.01 g and was the same for each carrier. The penetration experiments were carried out for 24 h. The samples were collected after 1 h, 2 h, 3 h, 4 h, 5 h, 6 h, 8 h, and 24 h. Aliquots of the acceptor fluid (0.5 mL) were withdrawn and to each acceptor chamber the same volume of fresh PBS solution was added. The FA and its derivatives’ concentrations in the acceptor fluid were measured by HPLC method (Section 2.6.2). The cumulative mass (µg·cm^−2) and penetration rate (µg·cm^−2·h^−1) were calculated. The acceptor fluid collected after 24 h of permeation was also measured for antioxidant activity and total polyphenol content (as described in Section 2.5.1 and Section 2.5.2).

[2] = DPPH antioxidant activity of acceptor fluid after 24 h permeation; set-up: species or system pig; conditions: after 24 h penetration
Protocol: To determine the antioxidant capacity of ferulic acid and its derivatives the DPPH method was used. The analyses were performed using the Hitachi UV-Vis Spectrophotometer U-5100 at the wavelength λ = 517 nm. Trolox (6-hydroxy-2,5,7,8-tetramethylchroman-2-carboxylic acid) was used as a reference substance. The antioxidant activity was expressed as %RSA and mmol Trolox dm^−3. […]. Blank samples without antioxidant were prepared in the same way. The tubes were wrapped in aluminum foil and were sealed with a stopper and then incubated for 10 min at room temperature. After this time, spectrophotometric measurements were carried out in triplicate. For determination of antioxidant activity of the acceptor fluid after 24 h of permeation and solutions obtained by extraction of the skin obtained after penetration study, 0.15 mL samples of each solutions were separately added to 2.85 mL of DPPH solution and spectrophotometric measurements were performed. The antioxidant activity was expressed as mmol Trolox·dm^−3.
as §1

[3] = test system: cancer cells (HepG2); set-up: method as in PMID 29077251; conditions: HepG2, 500 μg mL^−1; cited from earlier work

**Q.** Which “Cumulative Permeation Mass” value ([1]; from emulsion) does the source give for `COc1cc(/C=C/C(=O)O)ccc1O` [Ferulic acid] here?
**A.** 104.93 ± 7.63 a µg FA·cm^−2

**Q.** What about the “Cumulative Permeation Mass” value ([1]; from hydrogel) of the same molecule?
**A.** 289.36 ± 38.50 a µg FA·cm^−2

**Q.** What about the “Cumulative Permeation Mass” value ([1]; from solution in 70% (v/v) ethanol) of the same molecule?
**A.** 368.57 ± 2.94 a µg FA·cm^−2

**Q.** What about the “DPPH antioxidant activity of the acceptor fluid” value (shortened to “DPPH antioxidant activity”) ([2]; emulsion) of the same molecule?
**A.** 0.057 ± 0.004 a mmol Trolox dm^−3

**Q.** And the “DPPH antioxidant activity” value ([2]; ethanol solution, listed as FA)?
**A.** 0.079 ± 0.010 mmol Trolox dm^−3 and 0.079 ± 0.010 a mmol Trolox dm^−3

**Q.** What about the “DPPH antioxidant activity” value ([2]; hydrogel) of the same molecule?
**A.** 0.067 ± 0.004 a mmol Trolox dm^−3

**Q.** What about the “viability of cancer cells” value [3] of the same molecule?
**A.** significantly decreased the viability
